Assay results reported in patent publication US10881679B2, “Application of a phillyrin/phillygeninin composition in preparing a medicine or health care product for alleviating or/and treating viral diseases, and medicine or health care product for treating viral diseases” (priority 2014, dated 2021).
Like-named read-outs stand apart in the source and are kept apart here. Marks after values point to notes of the source that are not given here.

Key:
[1] = tested on: influenza virus; test: Impact on virus-induced cytopathic effect in Vero cells (MTT): influenza virus; type: cell-based
[2] = tested on: Coxsackievirus A16 (CoxA16); test: Impact on virus-induced cytopathic effect in Vero cells (MTT): CoxA16; type: cell-based; conditions: CoxA16 100TCID50, Vero, 72 h; drug g/L as Table 1-2
[3] = tested on: influenza virus; type: in vivo, Kunming mice; conditions: 13.0 mg/kg/d i.g. 5 days
[4] = tested on: sweat secretion of rat paws; test: Sweat secretion of rat paws (coloring method); type: in vivo, Wistar rats; conditions: dose not given
Text: The test is based on a mechanism that distribution of sweat glands is present in footpads of rat paws, the amount of sweat secretion and variation thereof can be observed by using a mechanism that a purple color can be produced by contacting iodine and starch when encountered with sweat.
500 Wistar rats with equal male and female number were used, weighing of 120˜150 g. These rats were randomly divided into 50 groups by weight and gender, i.e., namely 5 groups for the control groups (0.5% methyl cellulose), 5 groups for phillyrin groups, 5 groups for phillygeninin groups, 5 groups for the low, medium and high dose groups (2.5, 5, 10 mg/kg, respectively) of phillyrin/phillygeninin compositions A and B respactively, and 5 groups for the positive drug pilocarpine groups (35 mg/kg). Each group has 10 rats, 10 groups of rates are used for each test, which has 5 time periods (1, 5, 10, 15 and 20 min). The rats were placed into a self-made rat fixation bag, and both hind limbs of the rats were exposed. Dirt on the right paws was gently cleaned away using cotton swabs containing anhydrous alcohol. Pilocarpine solution was administered by subcutaneous injection, the remaining groups were subjected to intragastric administration. At 1 h (30 min for the pilocarpine group) after administration, pre-existing sweat and sweat generated due to struggle on the right paw of each rat in each group was gently wiped away with dry cotton swabs, then the paws were coated with solution A (dissolving 2 g iodine in 100 ml anhydrous alcohol) of Hetian-gaoyuanshi's reagent. After complete dryness, the paws were thinly coated with solution B (uniform mixture of 50 g soluble starch and 100 ml castor oil) of Hetian-gaoyuanshi's reagent. The color and number of dark purple coloring spots (i.e. sweat spots) were carefully observed at 1, 5, 10, 15 and 20 min after the coating of the solution B respectively with magnifying glass. After the test was completed, statistical treatment was performed according to the rank sum test with two-sample comparison, thereby comparing the differences among the various groups.

[5] = tested on: sweat gland epithelial cells of rat paws; test: Sweat secretion of rat paws (histomorphological observation method); type: in vivo, Wistar rats; conditions: dose not given; i.g., 1 h after administration
Text: This test is based on a mechanism that when a rat is in an excited state, in addition to the increase of sweat secretion of sweat glands, the morphology of sweat gland epithelial cells changes accordingly. Under an optical microscope, it can be seen that the sweat gland epithelial cell vacuoles increase in number and expand. Under an electron microscope, such expanded vacuoles appear to be mitochondria in the sweat gland epithelial cell swelling, breakage and fusion and expansion of secretory vesicle. Therefore, through histomorphological observation of sweat gland epithelial tissue of a rat paw, secretory activities of the sweat gland can be known.
300 Wistar rats with equal male and female number, weighing 120˜160 g were used. These rats were randomly divided into 30 groups by weight and gender: control groups (0.5% of methyl cellulose), phillygeninin groups, phillyrin groups, low, medium and high dose groups (2.5, 5, 10 mg/kg) of phillyrin/phillygeninin compositions A and B separately, and positive drug pilocarpine groups (35 mg/kg). Each group has 10 rats, the test is repeated 3 times for each group. Pilocarpine solution was administered by subcutaneous injection, the remaining groups were subjected to intragastric administration. After administration of the 0.5% of methyl cellulose in the control group for one hour, after administration of the pilocarpine in the positive drug group for 30 min, and after administration of the phillyrin, the phillygeninin and the phillyrin/phillygeninin composition for one hour, the right hind limb was instantly cut off at the ankle joint to immediately take down the footpad of the right hind limb and placed into 10% of formaldehyde solution. The footpads were fixed, dehydrated, embedded, sliced and stained with HE by using conventional methods. Changes in sweat gland epithelial cells of the rat paws from each group were observed under an optical microscope, to mainly observe the percentage of vacuolization. The differences among the various groups was performed through X^2 test for statistical analysis. The above test was repeated 3 times. Percentage of vacuolization=(the number of vacuolized sweat glands)/(the number of sweat glands observed)×100%.

[6] = tested on: rat fever induced by beer yeast; test: Rat fever induced by beer yeast (Saccharomyces cerevisiae); type: in vivo, Wistar rats; conditions: 10 mg/kg i.g.
Experimental: Male Wistar rats with a weight of 180˜200 g were used. Normal anal temperature of each rat was measured twice (at a certain interval) with a WSC-411P portable digital thermometer, and a mean of the two measurement values was taken as a normal body temperature of the rat. Then, 300 rats with body temperature at 36.5˜38° C. were selected and randomly divided into 30 groups by weight: model groups (0.5% methyl cellulose), phillyrin/phillygeninin compositions A and B that are divided into low, medium and high dose groups (2.5, 5, 10 mg/kg) respectively, phillyrin groups (13 mg/kg), phillygeninin groups (13 mg/kg), and positive drug paracetamol groups (100 mg/kg). Each group has 10 rates, and the test is repeated 3 times for each group. 10 mL/kg of 10% fresh Saccharomyces cerevisiae suspension was subcutaneously injected to the back of the rats of each group to induce fever. After administration of 10% fresh Saccharomyces cerevisiae suspension for 6.0 h, the phillyrin/phillygeninin composition and the paracetamol positive drug were administered by intragastric administration, and the same volume of 0.5% methyl cellulose is administrated to the model group by intragastric administration. Rectal temperatures were respectively measured at 1, 2, 3 and 4 h after the administration. Changes in the body temperature were observed and difference between the groups was compared by inter-group t test processing through antipyretic percentage. The above test was repeated totally 3 times.

[7] = 10 min after coating solution B
[8] = 15 min after coating solution B
[9] = 20 min after coating solution B

COc1cc([C@H]2OC[C@H]3[C@@H]2CO[C@H]3c2ccc(OC)c(OC)c2)ccc1O [Phillygeninin, phillygeninin]
antiviral effective rate (ER %) [1]: 75.35** %
antiviral effective rate (ER %) [2]: 50.04%
Lung index [3]: 1.302 ± 0.046
Lung index inhibition rate [3]: 12.51
Animal number of sweat spots of level + ([4]; 1 min after coating solution B): 1 rats
Animal number of sweat spots of level ++ ([4]; 1 min after coating solution B): 3 rats
Animal number of sweat spots of level +++ ([4]; 1 min after coating solution B): 3 rats
Animal number of sweat spots of level ++++ ([4]; 1 min after coating solution B): 3 rats
Animal number of sweat spots of level − ([4]; 1 min after coating solution B): 0 rats
Animal number of sweat spots of level + ([4]; 5 min after coating solution B): 1 rats
Animal number of sweat spots of level ++ ([4]; 5 min after coating solution B): 3 rats
Animal number of sweat spots of level +++ ([4]; 5 min after coating solution B): 2 rats
Animal number of sweat spots of level ++++ ([4]; 5 min after coating solution B): 4 rats
Animal number of sweat spots of level − ([4]; 5 min after coating solution B): 0 rats
Animal number of sweat spots of level + [4, 7]: 1 rats
Animal number of sweat spots of level ++ [4, 7]: 3 rats
Animal number of sweat spots of level +++ [4, 7]: 1 rats
Animal number of sweat spots of level ++++ [4, 7]: 5 rats
Animal number of sweat spots of level − [4, 7]: 0 rats
Animal number of sweat spots of level + [4, 8]: 1 rats
Animal number of sweat spots of level ++ [4, 8]: 1 rats
Animal number of sweat spots of level +++ [4, 8]: 3 rats
Animal number of sweat spots of level ++++ [4, 8]: 5 rats
Animal number of sweat spots of level − [4, 8]: 0 rats
Animal number of sweat spots of level + [4, 9]: 0 rats
Animal number of sweat spots of level ++ [4, 9]: 1 rats
Animal number of sweat spots of level +++ [4, 9]: 4 rats
Animal number of sweat spots of level ++++ [4, 9]: 5 rats
Animal number of sweat spots of level − [4, 9]: 0 rats
Number of sweat glands of vacuole [5]: 79
percentage of vacuolization (%) [5]: 20.26** %
Body temperature ([6]; 1 h after administration): 39.31 ± 0.48 °C
antipyretic percentage (%) ([6]; 1 h after administration): −0.33 ± 0.41%
Body temperature ([6]; 2 h after administration): 39.04 ± 0.45 °C
antipyretic percentage (%) ([6]; 2 h after administration): −0.69 ± 0.93 %
Body temperature ([6]; 3 h after administration): 38.91 ± 0.40 °C
antipyretic percentage (%) ([6]; 3 h after administration): −1.03 ± 1.18 %
Body temperature ([6]; 4 h after administration): 38.70 ± 0.31 °C
antipyretic percentage (%) ([6]; 4 h after administration): −1.55 ± 1.23 %

COc1ccc([C@H]2OCC3C2CO[C@H]3c2ccc(O[C@@H]3OC(CO)[C@@H](O)[C@H](O)C3O)c(OC)c2)cc1OC (stereo partly drawn) [phillyrin]
antiviral effective rate (ER %) ([1]; influenza virus 100TCID50, Vero, 72 h, drug g/L (Table 1-2): phillyrin 0.01, Phillygeninin 0.02, compositions A, B 0.01, Ribavirin 0.70, oseltamivir phosphate 0.30): 75.38** %
antiviral effective rate (ER %) [2]: 75.08** %
Lung index [3]: 1.280 ± 0.040
Lung index inhibition rate [3]: 14.00
Animal number of sweat spots of level + ([4]; 1 min after coating solution B): 2 rats
Animal number of sweat spots of level ++ ([4]; 1 min after coating solution B): 2 rats
Animal number of sweat spots of level +++ ([4]; 1 min after coating solution B): 2 rats
Animal number of sweat spots of level ++++ ([4]; 1 min after coating solution B): 4 rats
Animal number of sweat spots of level − ([4]; 1 min after coating solution B): 0 rats
Animal number of sweat spots of level + ([4]; 5 min after coating solution B): 1 rats
Animal number of sweat spots of level ++ ([4]; 5 min after coating solution B): 2 rats
Animal number of sweat spots of level +++ ([4]; 5 min after coating solution B): 2 rats
Animal number of sweat spots of level ++++ ([4]; 5 min after coating solution B): 5 rats
Animal number of sweat spots of level − ([4]; 5 min after coating solution B): 0 rats
Animal number of sweat spots of level + [4, 7]: 1 rats
Animal number of sweat spots of level ++ [4, 7]: 1 rats
Animal number of sweat spots of level +++ [4, 7]: 3 rats
Animal number of sweat spots of level ++++ [4, 7]: 5 rats
Animal number of sweat spots of level − [4, 7]: 0 rats
Animal number of sweat spots of level + [4, 8]: 1 rats
Animal number of sweat spots of level ++ [4, 8]: 2 rats
Animal number of sweat spots of level +++ [4, 8]: 4 rats
Animal number of sweat spots of level ++++ [4, 8]: 5 rats
Animal number of sweat spots of level − [4, 8]: 0 rats
Animal number of sweat spots of level + [4, 9]: 0 rats
Animal number of sweat spots of level ++ [4, 9]: 4 rats
Animal number of sweat spots of level +++ [4, 9]: 0 rats
Animal number of sweat spots of level ++++ [4, 9]: 6 rats
Animal number of sweat spots of level − [4, 9]: 0 rats
Number of sweat glands of vacuole [5]: 86
percentage of vacuolization (%) [5]: 22.15** %
Body temperature ([6]; 1 h after administration): 39.13 ± 0.52 °C
antipyretic percentage (%) ([6]; 1 h after administration): −0.60 ± 0.39%
Body temperature ([6]; 2 h after administration): 38.77 ± 0.42 °C
antipyretic percentage (%) ([6]; 2 h after administration): −0.92 ± 0.93 %
Body temperature ([6]; 3 h after administration): 38.63 ± 0.40 °C
antipyretic percentage (%) ([6]; 3 h after administration): −1.29 ± 1.18 %
Body temperature ([6]; 4 h after administration): 38.46 ± 0.31 °C
antipyretic percentage (%) ([6]; 4 h after administration): −1.70 ± 1.23 %
